Experimental data as given in US20110130375A1 (priority 2008, published 2011).

What was measured:
[1] = system: isolated rabbit thoracic aorta preparations; assay: Assay on vascular tone (vasorelaxation of methoxamine-precontracted aortic rings); format: cell-based; conditions: for EC50: Oryctolagus cuniculus, read-out: EC50 (concentration producing 50% of the maximum relaxation)
Description: The ability of the compounds of the invention to induce vasorelaxation in comparison to precursor compound, was tested in vitro in isolated rabbit thoracic aorta preparations (Wanstall J. C. et al., Br. J. Pharmacol., 134:463-472, 2001).
Male New Zealand rabbits (1, 8-2 Kg) were used. The animals were anaesthetized with sodium thiopental (50 mg/kg, iv), sacrificed by exsanguinations and then the thorax was opened and the aorta dissected. The aortas were placed immediately in Krebs-HEPES buffer (pH 7.4; composition mM: NaCl 130.0, KCl 3.7, NaHCO3 14.9, KH2PO4 1.2, MgSO4⊙7H2O 1.2, Glucose 11.0, HEPES 10.0, CaCl2.2H2O 1.6) and cut into ring segments (4-5 mm in length). Each ring was placed in a 5 ml tissue bath filled with Krebs-HEPES buffer (37° C.) aerated with 95% O2 and 5% CO2 and was then attached to a force transducer (Grass FT03), connected to a BIOPAC MP150 System for measurement of the isometric tension^2. The preparations were allowed to equilibrate for 1 h at a resting tension of 2 g with changes of the buffer every 15 minutes and then stimulated by exposure to 90 mM KCl (3 times) with intervening washings. After equilibration, the rings were precontracted submaximally with methoxamine (3 μM) and, when the contraction reach a steady state a cumulative concentration-response curve to the test compounds was obtained. The time intervals between doses were based on the time needed to reach a full a steady state response.
Responses to test compounds were expressed as a percentage of residual contraction and plotted against concentration of test compound. EC50 values (where EC50 is the concentration producing 50% of the maximum relaxation to the test compound) were interpolated from these plots.

[2] = system: corticosteroid-induced glaucoma; conditions: rabbit, administered topically twice a day; cited from earlier work

SMILES | EC50 [1] | also measured
C[C@H]1C[C@H]2[C@@H]3CCC4=CC(=O)C=C[C@]4(C)[C@@]3(F)[C@@H](O)C[C@]2(C)[C@@]1(O)C(=O)CO [betamethasone, Betamethasone] | – | EC50 (concentration producing 50% of the maximum relaxation) ([1]; rabbit aortic rings precontracted with methoxamine (3 μM), cumulative concentration-response curve): no effect
COc1cc(C(=O)OCCCCO[N+](=O)[O-])ccc1OC(=O)OCC(=O)[C@@]1(OC(=O)CCCO[N+](=O)[O-])[C@@H](C)CC2C3CCC4=CC(=O)C=C[C@]4(C)[C@@]3(F)[C@@H](O)C[C@@]21C (stereo partly drawn) [Compound (3), 4-(nitrooxy)butyl 4-((2-((9R,10S,11S,13S,16S,17R)-9-fluoro-11-hydroxy-10,13,16-trimethyl-17-(4-(nitrooxy)butanoyloxy)-3-oxo-6,7,8,9,10,11,12,13,14,15,16,17-dodecahydro-3H-cyclopenta[a]phenanthren-17-yl)-2-oxoethoxy)carbonyloxy)-3-methoxybenzoate] | 1.14 ± 0.48 µM | –
C[C@@H]1C[C@H]2[C@@H]3CCC4=CC(=O)C=C[C@]4(C)[C@@]3(F)[C@@H](O)C[C@]2(C)[C@@]1(O)C(=O)COC(=O)c1ccc(CO[N+](=O)[O-])cc1 [dexamethasone 21-[(4-nitrooxymethyl)]benzoate] | – | effects in corticosteroid-induced glaucoma (intraocular pressure, retro bulbar circulation, ciliary body morphology) [2]: may prevent the intraocular pressure increase, the impairment of retro bulbar circulation, and the morphological changes in the ciliary bodies
C[C@H]1CC2C3CCC4=CC(=O)C=C[C@]4(C)[C@@]3(F)[C@@H](O)C[C@]2(C)[C@@]1(OC(=O)CCCO[N+](=O)[O-])C(=O)COC(=O)CCCO[N+](=O)[O-] (stereo partly drawn) [Compound (2), (9R,10S,11S,13S,16S,17R)-9-fluoro-11-hydroxy-10,13,16-trimethyl-17-(2-(4-(nitrooxy)butanoyloxy)acetyl)-3-oxo-6,7,8,9,10,11,12,13,14,15,16,17-dodecahydro-3H-cyclopenta[a]phenanthren-17-yl 4-(nitrooxy)butanoate] | 1.68 ± 0.61 µM | –
